Source: patent US9708628B2, “Cationic lipid having improved intracellular kinetics” (NOF CORPORATION, priority 2011, dated 2017)

Key:
HT1080 cells = assay: Intracellular kinetics: endosomal escape of rhodamine-labeled pDNA (confocal microscopy); format: cell-based; conditions: for endosomal escape potency (colocalization of pDNA red and endosome/lysosome green): cationic lipid:SOPE:Chol=5:3:2 or DOTAP:DOPE:Chol=3:4:3, 3 hr after transfection; for gene endosomal escape efficiency, quantified (order): FIG. 7
Description: For MEND preparation, the Rhodamine-labeled pDNA prepared by the method of [Experimental Example 1] (4) was used. MEND having a composition of cationic lipid:SOPE:Chol=5:3:2 was prepared by the method described in [Experimental Example 1] (2). For the preparation, PEG2000-DMG was used as PEG lipid, and MEND solutions corresponding to 0.55 mM of the lipid concentration were prepared. For cationic MEND, lipids having a composition of DOTAP (Comparative Example 3):DOPE:Chol:=3:4:3 were used, and the cationic MEND was prepared according to the method described in [Experimental Example 1] (3). In addition, cationic MEND having a lipid composition of DOTAP:DOPE:Chol:=3:4:3 was also prepared by a simple hydration method to have a lipid concentration of 0.55 mM.
HT1080 cells were plated on a glass bottom dish at 1×10^5 cells/2 mL/dish 24 hr before. Since MENDs composed of B-2 or DODAP show low uptake activity into cells, MEND was diluted with Krebs buffer to pDNA 8 μg/1 mL Krebs buffer/dish. As for B-2-1 or DOTAP MEND having a high uptake activity, MEND was diluted with Krebs buffer to pDNA 1.6 μg/1 mL Krebs buffer/dish and transfected into the cells. After 2.5 hr, Lysotracker Green (Life technologies) was added at 1 μL/dish and, 30 min later, Hoechst 33342 (Dojindo) was further added at 1 μL/dish. 3 hr after the transfection, the cells were washed twice with heparin (20 units/mL, 2 mL), Krebs buffer (1 mL) was added, and the mixture was observed by a confocal laser scan microscope.
Rhodamine-labeled pDNA, endosome/lysosome, and nucleus were shown in pseudo colors of red, green and blue, respectively. The endosomal escape potency was evaluated by the colocalization of red and green. […] Furthermore, the gene endosomal escape efficiency was quantified to find higher efficiency in the order of DODAP<B-2-1<B-2.

[1] = Particle size and surface potential of pDNA-encapsulating MENDs, dynamic light scattering (Zetasizer Nano); format: physicochemical
Description: A solution of pDNA encoding luciferase gene and protamine (CALBIOCHEM) solution were diluted with 10 mM HEPES buffer to 0.3 mg/mL and […], respectively. While stirring 0.3 mg/mL pDNA (125 μL), 0.24 mg/mL protamine (125 μL) was added dropwise in small portions to prepared an electrostatic complex of protamine and pDNA (N/P ratio=1.2) as a core of the vector. In the method described in the following (2), 10 mM HEPES buffer (pH 5.3) was used and, in the method described in (3), 10 mM HEPES buffer (pH 7.4) was used.
A lipid solution in ethanol was prepared by mixing 5 mM cationic lipid, 5 mM phospholipid and 5 mM cholesterol (Chol) at desired ratios to achieve 165 nmol total lipid in an Eppendorf tube, further adding various PEG lipids (1 mM solution in ethanol) in an amount corresponding to 3 mol % of the total lipid, and adding ethanol to achieve a total volume of 100 μL. While stirring the lipid solution in a vortex mixer, 100 μL of the nucleic acid electrostatic complex (10 mM HEPES; pH 5.3) prepared in [Experimental Example 1] (1) was quickly added, and thereafter 10 mM HEPES buffer (1.8 mL, adjusted to pH 5.3) was added to dilute the mixture to an ethanol concentration of 5%. The mixture was concentrated to about 50 μL by ultrafiltration using Amicon Ultra 4 (Millipore) under centrifugation conditions (room temperature, 2267 rpm, 20 min). Thereafter, it was diluted to 4 mL with 100 mM HEPES buffer (adjusted to pH 7.4), and again concentrated by centrifugation (2267 rpm, 20 min) under room temperature conditions. Finally, it was diluted with 10 mM HEPES buffer (pH 7.4) to a desired lipid concentration.
A solution of each lipid in chloroform (5 mM DOTAP 24.75 μL, 5 mM DOPE 33 μL, 5 mM Chol 24.75 μL) were mixed in a glass test tube at DOTAP:DOPE:Chol=3:4:3 to achieve 412.5 nmol total lipid. Ethanol was added to a total amount of 250 μL, and the mixture was dried under reduced pressure in a desiccator. The solvent was evaporated to give a lipid thin film. To the lipid thin film was added 250 μL of the gene electrostatic complex (in 10 mM HEPES; pH 7.4) prepared in [Experimental Example 1] (1) to a total lipid concentration of 1.65 mM, and the mixture was stood at room temperature for 10 min to allow for hydration, and sonicated by a sonicator (AIWA MEDICAL […] CO., LTD.) for 1 min.
The particle size and the surface potential were measured by the dynamic light scattering method (Zetasizer Nano; Malve Rn). The particle size and the surface potential of the various MENDs prepared by the preparation method of [Experimental Example 1] are shown in Table 3. The charge of B-2 and DODAP at physiological pH was in a preferable mode of −10 to +10 mV, whereas that of B-2-1 was +12.3, which is not less than +10 mV.
(1) MEND having a composition of B-2-4 (Example 4):DOPE:Chol=3:3:4 or B-2-5 (Example 5):POPE:Chol=3:4:3 was prepared according to the method described in [Experimental Example 1] (1) and (2).
The particle size and the surface potential were measured by the dynamic light scattering method (Zetasizer Nano; Malvern). The particle size and the surface potential of the various MENDs prepared by the preparation method of [Experimental Example 1] are shown in Table 4.

[2] = pDNA MEND, DOTAP:DOPE:Chol = 3:4:3
[3] = pDNA MEND, cationic lipid:SOPE:Chol = 3:4:3
[4] = pDNA MEND, cationic lipid:SOPE:Chol = 5:3:2
[5] = pDNA MEND, cationic lipid:POPE:Chol = 3:4:3
[6] = pDNA MEND, cationic lipid:DOPE:Chol = 3:3:4

SMILES | endosomal escape potency (colocalization of pDNA red and endosome/lysosome green) (HT1080 cells) | gene endosomal escape efficiency, quantified (order) (HT1080 cells) | PDI [1, 3] | size (nm) [1, 3] [nm] | zeta (mV) [1, 3] [mV] | PDI [1, 4] | size (nm) [1, 4] [nm] | zeta (mV) [1, 4] [mV] | further results
CCCCCCCC/C=C\CCCCCCCC(=O)OCC(C[N+](C)(C)C)OC(=O)CCCCCCC/C=C\CCCCCCCC (stereo not drawn) [DOTAP, reference compound] | red signal alone was present |  |  |  |  |  |  |  | surface potential of MEND ([1]; pDNA MEND using DOTAP): about +50 mV; PDI [1, 2]: 0.295; size (nm) [1, 2]: 235.8 nm; zeta (mV) [1, 2]: 57.9 mV
CCCCCCCC/C=C\CCCCCCCC(=O)OCC(CN(C)C)OC(=O)CCCCCCC/C=C\CCCCCCCC (stereo not drawn) [DODAP, reference compound] | colocalization of red and green was notable | DODAP<B-2-1<B-2 | 0.093 | 151.1 | −3.18 | 0.106 | 165.6 | 4.13 | 
Cc1c(C)c2c(c(C)c1OC(=O)CCC(=O)OCCCN(C)CCSSCCN(C)CCCOC(=O)CCC(=O)Oc1c(C)c(C)c3c(c1C)CCC(C)(CCCC(C)CCCC(C)CCCC(C)C)O3)CCC(C)(CCCC(C)CCCC(C)CCCC(C)C)O2 (stereo not drawn) [Example B-2-5] |  |  |  |  |  |  |  |  | PDI [1, 5]: 0.15; size (nm) [1, 5]: 131.7 nm; zeta (mV) [1, 5]: −9.35 mV
CCCCCCCCCCCCCC(=O)OCCCN(C)CCSSCCN(C)CCCOC(=O)CCCCCCCCCCCCC [Example B-2] | red signal alone was present | DODAP<B-2-1<B-2 | 0.14 | 156.3 | −0.08 | 0.11 | 168.9 | −2.95 | 
CCCCCCCCCCCCCC(=O)OCCCN(C)CCCCCCN(C)CCCOC(=O)CCCCCCCCCCCCC [Example B-2-1, reference compound] | red signal alone was present | DODAP<B-2-1<B-2 | 0.07 | 150.3 | 12.4 | 0.084 | 147.8 | 12.3 | charge at physiological pH ([1]; pDNA MEND): +12.3 mV
CC1=C(/C=C/C(C)=C/C=C/C(C)=C/C(=O)OCCCN(C)CCSSCCN(C)CCCOC(=O)/C=C(C)/C=C/C=C(C)/C=C/C2=C(C)CCCC2(C)C)C(C)(C)CCC1 [Example B-2-4] |  |  |  |  |  |  |  |  | PDI [1, 6]: 0.12; size (nm) [1, 6]: 146.7 nm; zeta (mV) [1, 6]: −7.22 mV
